Columns and labels:
CDK12/CycK = target: T1, CDK12/CycK (Homo sapiens, UniProt Q9NYV4); experiment: Kinase profiling; assay type: biochemical
T1 construct: purchased ProQinase (Freiburg, Germany)
Method: (§1) The analysis was performed by ProQinase (Freiburg, Germany).

CDK2/CycD1 = target: T2, CDK2/CycD1 (Homo sapiens, UniProt P24941); experiment: Kinase profiling; assay type: biochemical
T2 construct: purchased ProQinase (Freiburg, Germany)
Method: as §1

CDC7/DBF4 = target: T3, CDC7/DBF4 (Homo sapiens, UniProt O00311); experiment: Kinase profiling; assay type: biochemical
T3 construct: purchased ProQinase (Freiburg, Germany)
Method: as §1

ZAP70 = target: T4, ZAP70 (Homo sapiens, UniProt P43403); experiment: Kinase profiling; assay type: biochemical
T4 construct: purchased ProQinase (Freiburg, Germany)
T4 sequence (P43403 1-619): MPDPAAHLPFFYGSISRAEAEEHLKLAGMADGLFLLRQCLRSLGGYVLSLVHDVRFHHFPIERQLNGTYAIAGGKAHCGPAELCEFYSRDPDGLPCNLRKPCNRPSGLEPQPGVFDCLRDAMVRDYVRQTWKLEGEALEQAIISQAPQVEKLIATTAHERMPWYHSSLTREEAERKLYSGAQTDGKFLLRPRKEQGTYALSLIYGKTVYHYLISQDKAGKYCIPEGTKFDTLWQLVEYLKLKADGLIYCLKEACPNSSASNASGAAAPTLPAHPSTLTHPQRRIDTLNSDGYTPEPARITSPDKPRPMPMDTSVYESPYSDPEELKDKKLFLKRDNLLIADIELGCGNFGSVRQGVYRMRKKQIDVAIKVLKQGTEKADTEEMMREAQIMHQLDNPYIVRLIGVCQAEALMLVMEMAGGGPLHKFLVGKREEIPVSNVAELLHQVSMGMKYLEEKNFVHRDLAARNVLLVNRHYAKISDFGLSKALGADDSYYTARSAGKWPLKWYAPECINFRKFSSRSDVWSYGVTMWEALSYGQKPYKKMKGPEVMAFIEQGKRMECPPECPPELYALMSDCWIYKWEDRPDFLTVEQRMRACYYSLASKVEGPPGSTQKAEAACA
Method: as §1

CLK4 = target: T5, CLK4 (Homo sapiens, UniProt Q9HAZ1); experiment: Kinase profiling; assay type: biochemical
T5 construct: purchased ProQinase (Freiburg, Germany)
Method: as §1

NEK4 = target: T6, NEK4 (Homo sapiens, UniProt P51957); experiment: Kinase profiling; assay type: biochemical
T6 construct: purchased ProQinase (Freiburg, Germany)
Method: as §1

[1] = tested on: 335 wild-type protein kinases; experiment: Kinase inhibition profiling, selectivity score; assay type: biochemical
Method: as §1

PXR(S208W/S247W/C284W) = target: T7, PXR(S208W/S247W/C284W) (Homo sapiens, UniProt O75469, C284W/S208W/S247W); experiment: LBP-filled PXR mutant CYP3A4 reporter assay; assay type: cell-based; conditions: HepG2, 10 µM, 24 h
T7 construct: expressed in transfected cells; host or cells: HepG2
Method: For testing nuclear receptor selectivity and LBP-filled PXR mutant activation, transient batch transfection was conducted as above, but with HepG2 cells and the following plasmids, with amounts per well of 0.23–0.27 µg pGL4-CYP3A4(-7830Δ7208-364) or pGL3(DR3)3Tk (as reporter for VDR), 0.01 µg pMetLuc2control, and 0.03 µg either CAR1, CAR3, VDR, or PXR(S208W/S247W/C284W) expression plasmids. In addition, 0.03 µg RXRα expression plasmid was added to CAR3 transfections. Metridia luciferase activity was measured from 10 µL of medium supernatant after adding 100 µL Renilla luciferase assay solution.
Figure 5 PXR binding of phenylaminobenzosuberones is indicated by cellular PXR LBD assembly assay and inhibition of LBP-filled PXR mutant (A) Novel compounds induce PXR LBD assembly. […] (B) Effects of novel compounds on LBP-filled PXR mutant. HepG2 cells were transiently transfected with CYP3A4 reporter and expression plasmid encoding PXR(S208W/S247W/C284W) and treated as described above. […] Statistically significant differences are illustrated with asterisks. ** p ˂ 0.01, compared to respective treatments with DMSO analyzed by repeated measures one-way ANOVA with Dunnett’s multiple comparisons test.

CYP3A4 = experiment: PXR target gene mRNA expression in differentiated HepaRG cells (RT-qPCR); assay type: cell-based; conditions: 10 µM, 48 h
Method: (§2) HepaRG cells (Biopredic, Rennes, France) were cultivated in phenol red-free William’s E medium, supplemented with 10% FBS, 2 mM glutamine, 100 U/mL penicillin, 100 µg/mL streptomycin, 5 µg/mL insulin, and 50 µM hydrocortisone. For gene expression analyses, 1.0 × 10^5 cells were seeded per well of a 12-well plate. After reaching confluence, growth medium was supplemented with 2% DMSO, and cells were further cultivated for 2 weeks for differentiation into hepatocytes, as described previously. Afterward, cells were adapted to induction medium (growth medium with FBS reduced to 2% and 0.2% DMSO) for 48 h. Then chemical treatment was started for another 48 h, with daily medium change.
(§3) Total RNA was prepared from LS174T and HepaRG cells using the NucleoSpin RNA kit (Macherey-Nagel, Düren, Germany). RNA integrity was analyzed by formaldehyde-agarose gel electrophoresis. First strand cDNA was synthesized as described earlier. Relative quantification analyses were conducted with TaqMan RT-PCR utilizing the BioMark HD system and FLEX Six Gene Expression Integrated Fluidic Circuits (Fluidigm, South San Francisco, CA, USA) as described previously. TaqMan gene expression assays were either the commercially available predesigned assays Hs00184500_m1 (ABCB1) and Hs00604506_m1 (CYP3A4) (Thermo Fischer Scientific) or have been described previously: CYP2B6 [31] and 18S rRNA [39]. Data were analyzed as described previously. Gene expression levels were normalized to respective 18S rRNA levels.
(§4) Figure 7 Effects of novel PXR ligands on endogenous PXR target gene expression. […] (B) HepaRG cells were treated with 0.2% DMSO, 10 µM RIF, or 10 µM compound 100 or cotreated with 10 µM RIF and compound 100 for 48 h. mRNA expression was measured as described above.

CYP2B6 = experiment: as above; assay type: cell-based; conditions: 10 µM, 48 h
Method: as §2, §3, §4

ABCB1 = experiment: as above; assay type: cell-based; conditions: 48 h
Method: as §2, §3, §4

T6 sequence (P51957 whole entry): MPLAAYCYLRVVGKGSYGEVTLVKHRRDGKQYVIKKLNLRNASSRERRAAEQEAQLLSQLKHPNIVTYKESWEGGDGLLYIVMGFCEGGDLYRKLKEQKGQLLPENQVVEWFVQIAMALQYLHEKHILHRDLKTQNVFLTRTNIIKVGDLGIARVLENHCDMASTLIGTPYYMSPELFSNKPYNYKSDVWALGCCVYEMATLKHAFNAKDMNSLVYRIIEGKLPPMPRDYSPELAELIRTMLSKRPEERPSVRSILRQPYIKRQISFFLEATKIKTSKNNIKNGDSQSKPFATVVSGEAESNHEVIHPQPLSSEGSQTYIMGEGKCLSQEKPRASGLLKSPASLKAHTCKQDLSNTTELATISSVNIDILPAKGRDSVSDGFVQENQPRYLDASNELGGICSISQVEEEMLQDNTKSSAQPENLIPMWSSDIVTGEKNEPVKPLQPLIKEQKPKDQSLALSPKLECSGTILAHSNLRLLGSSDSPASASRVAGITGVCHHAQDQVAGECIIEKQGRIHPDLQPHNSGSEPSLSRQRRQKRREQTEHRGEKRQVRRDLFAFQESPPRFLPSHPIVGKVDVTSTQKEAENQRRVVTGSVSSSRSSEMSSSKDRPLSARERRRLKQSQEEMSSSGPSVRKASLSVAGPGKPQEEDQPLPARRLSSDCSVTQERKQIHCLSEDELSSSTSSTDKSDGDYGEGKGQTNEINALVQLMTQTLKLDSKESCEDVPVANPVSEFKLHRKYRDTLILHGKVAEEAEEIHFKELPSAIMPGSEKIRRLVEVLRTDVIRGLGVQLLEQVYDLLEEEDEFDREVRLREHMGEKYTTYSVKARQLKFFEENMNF
T1 sequence (Q9NYV4 whole entry): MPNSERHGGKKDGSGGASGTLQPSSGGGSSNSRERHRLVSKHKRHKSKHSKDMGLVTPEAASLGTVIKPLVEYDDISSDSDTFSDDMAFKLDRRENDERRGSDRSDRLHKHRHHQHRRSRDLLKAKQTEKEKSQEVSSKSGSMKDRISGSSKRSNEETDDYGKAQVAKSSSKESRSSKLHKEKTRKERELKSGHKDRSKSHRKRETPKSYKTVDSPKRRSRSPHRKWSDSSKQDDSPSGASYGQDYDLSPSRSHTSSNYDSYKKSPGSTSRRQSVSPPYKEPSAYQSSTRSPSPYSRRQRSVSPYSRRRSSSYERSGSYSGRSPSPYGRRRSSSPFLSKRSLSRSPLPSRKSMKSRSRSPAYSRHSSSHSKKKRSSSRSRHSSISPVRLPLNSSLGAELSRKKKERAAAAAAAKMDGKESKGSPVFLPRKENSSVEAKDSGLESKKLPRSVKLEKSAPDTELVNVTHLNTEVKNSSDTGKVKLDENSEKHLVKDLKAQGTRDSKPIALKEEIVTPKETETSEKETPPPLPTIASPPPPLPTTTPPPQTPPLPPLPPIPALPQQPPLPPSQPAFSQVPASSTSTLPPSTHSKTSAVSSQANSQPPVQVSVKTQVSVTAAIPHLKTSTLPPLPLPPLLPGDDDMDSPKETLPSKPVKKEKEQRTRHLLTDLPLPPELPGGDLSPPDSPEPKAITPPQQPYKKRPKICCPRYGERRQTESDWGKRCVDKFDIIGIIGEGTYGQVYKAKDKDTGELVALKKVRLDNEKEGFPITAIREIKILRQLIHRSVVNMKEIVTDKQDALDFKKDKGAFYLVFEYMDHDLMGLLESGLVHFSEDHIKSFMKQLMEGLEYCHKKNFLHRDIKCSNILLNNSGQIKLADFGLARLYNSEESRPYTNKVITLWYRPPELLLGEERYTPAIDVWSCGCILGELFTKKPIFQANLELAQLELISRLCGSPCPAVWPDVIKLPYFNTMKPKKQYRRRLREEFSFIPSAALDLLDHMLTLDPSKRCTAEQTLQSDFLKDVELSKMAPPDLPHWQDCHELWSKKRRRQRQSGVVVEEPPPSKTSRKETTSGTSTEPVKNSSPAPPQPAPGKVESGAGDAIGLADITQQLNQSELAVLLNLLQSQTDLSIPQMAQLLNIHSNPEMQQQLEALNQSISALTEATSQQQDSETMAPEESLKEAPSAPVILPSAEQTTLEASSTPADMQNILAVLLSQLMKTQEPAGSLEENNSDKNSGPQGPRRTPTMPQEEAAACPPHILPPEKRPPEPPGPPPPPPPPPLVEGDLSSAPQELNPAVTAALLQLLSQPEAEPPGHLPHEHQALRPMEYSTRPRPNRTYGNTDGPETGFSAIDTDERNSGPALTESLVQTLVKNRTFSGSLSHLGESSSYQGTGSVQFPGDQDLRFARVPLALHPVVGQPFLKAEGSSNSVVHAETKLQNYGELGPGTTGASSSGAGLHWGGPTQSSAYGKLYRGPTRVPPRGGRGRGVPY
T1 sequence (O75909 whole entry partner): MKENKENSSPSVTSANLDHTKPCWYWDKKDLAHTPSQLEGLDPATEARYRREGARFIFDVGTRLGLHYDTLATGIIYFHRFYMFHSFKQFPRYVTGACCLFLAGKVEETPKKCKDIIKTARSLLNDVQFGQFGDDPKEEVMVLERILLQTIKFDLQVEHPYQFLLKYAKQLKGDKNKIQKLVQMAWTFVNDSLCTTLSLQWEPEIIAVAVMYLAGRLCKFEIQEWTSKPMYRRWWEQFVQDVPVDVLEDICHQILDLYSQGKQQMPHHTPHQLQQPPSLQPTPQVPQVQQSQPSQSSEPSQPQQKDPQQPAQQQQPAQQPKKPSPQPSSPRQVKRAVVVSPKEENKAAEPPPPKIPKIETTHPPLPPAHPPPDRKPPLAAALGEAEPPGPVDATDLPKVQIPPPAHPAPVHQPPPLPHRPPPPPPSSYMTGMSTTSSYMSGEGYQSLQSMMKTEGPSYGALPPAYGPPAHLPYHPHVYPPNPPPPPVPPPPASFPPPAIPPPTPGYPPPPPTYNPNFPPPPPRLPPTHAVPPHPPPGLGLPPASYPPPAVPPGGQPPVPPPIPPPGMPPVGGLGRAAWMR
T5 sequence (Q9HAZ1 whole entry): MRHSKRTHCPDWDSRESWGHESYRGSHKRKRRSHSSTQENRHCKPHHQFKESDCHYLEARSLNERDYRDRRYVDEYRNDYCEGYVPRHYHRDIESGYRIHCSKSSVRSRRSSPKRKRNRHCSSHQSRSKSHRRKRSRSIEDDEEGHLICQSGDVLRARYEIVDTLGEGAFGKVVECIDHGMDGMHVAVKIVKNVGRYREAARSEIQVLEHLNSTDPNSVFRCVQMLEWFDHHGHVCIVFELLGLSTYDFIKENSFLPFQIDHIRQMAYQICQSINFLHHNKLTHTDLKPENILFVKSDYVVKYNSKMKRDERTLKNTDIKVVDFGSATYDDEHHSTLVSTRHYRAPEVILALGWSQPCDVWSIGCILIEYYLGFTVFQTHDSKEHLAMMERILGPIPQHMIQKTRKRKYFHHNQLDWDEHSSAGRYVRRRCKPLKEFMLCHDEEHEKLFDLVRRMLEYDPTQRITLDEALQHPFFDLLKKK
T3 sequence (O00311 whole entry): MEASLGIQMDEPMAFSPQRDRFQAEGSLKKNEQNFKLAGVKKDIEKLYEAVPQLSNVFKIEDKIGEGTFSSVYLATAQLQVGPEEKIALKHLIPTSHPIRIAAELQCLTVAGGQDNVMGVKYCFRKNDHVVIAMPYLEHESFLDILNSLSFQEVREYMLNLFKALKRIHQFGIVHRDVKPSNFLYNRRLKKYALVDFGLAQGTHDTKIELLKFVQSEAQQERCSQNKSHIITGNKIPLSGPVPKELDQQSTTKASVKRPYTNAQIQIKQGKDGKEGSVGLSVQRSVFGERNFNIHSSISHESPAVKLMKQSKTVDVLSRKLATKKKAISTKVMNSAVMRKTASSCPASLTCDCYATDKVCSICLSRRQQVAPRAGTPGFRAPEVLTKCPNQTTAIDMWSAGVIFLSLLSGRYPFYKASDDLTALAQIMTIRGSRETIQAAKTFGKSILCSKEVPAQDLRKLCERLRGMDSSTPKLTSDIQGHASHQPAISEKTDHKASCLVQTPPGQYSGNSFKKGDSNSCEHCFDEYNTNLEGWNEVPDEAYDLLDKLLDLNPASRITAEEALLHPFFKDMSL
T3 sequence (Q9UBU7 whole entry partner): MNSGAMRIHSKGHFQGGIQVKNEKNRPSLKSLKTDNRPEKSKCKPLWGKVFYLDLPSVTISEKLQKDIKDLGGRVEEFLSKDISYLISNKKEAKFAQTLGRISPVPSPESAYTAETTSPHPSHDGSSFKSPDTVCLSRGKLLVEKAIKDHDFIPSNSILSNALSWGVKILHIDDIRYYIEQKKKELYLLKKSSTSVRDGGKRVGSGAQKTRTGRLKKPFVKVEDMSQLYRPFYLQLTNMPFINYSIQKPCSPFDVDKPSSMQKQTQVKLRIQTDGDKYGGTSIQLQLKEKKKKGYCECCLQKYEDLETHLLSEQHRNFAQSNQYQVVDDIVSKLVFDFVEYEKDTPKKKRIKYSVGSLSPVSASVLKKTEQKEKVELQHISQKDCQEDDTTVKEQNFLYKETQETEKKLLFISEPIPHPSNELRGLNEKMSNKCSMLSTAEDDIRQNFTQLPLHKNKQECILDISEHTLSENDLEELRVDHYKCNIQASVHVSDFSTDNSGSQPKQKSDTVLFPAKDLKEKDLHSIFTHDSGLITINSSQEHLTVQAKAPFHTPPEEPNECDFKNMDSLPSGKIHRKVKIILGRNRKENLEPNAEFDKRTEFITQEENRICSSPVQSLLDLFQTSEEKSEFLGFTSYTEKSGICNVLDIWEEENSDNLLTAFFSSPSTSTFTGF
T7 sequence (O75469 whole entry S208W/S247W/C284W): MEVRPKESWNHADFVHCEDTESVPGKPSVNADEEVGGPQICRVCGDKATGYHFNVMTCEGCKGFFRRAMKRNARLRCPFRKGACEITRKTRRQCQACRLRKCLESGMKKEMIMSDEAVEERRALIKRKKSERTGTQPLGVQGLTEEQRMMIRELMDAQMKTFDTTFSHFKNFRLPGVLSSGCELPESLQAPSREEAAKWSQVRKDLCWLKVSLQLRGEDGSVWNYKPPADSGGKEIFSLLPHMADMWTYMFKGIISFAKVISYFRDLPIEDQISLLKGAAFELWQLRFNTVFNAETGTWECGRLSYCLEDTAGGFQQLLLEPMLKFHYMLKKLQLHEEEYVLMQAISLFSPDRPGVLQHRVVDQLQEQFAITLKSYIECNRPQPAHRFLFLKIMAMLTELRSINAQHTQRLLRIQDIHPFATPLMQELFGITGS

| Compound | Residual activity (CDK12/CycK; 1.0E-05 M) | Residual activity (CDK12/CycK; 1.0E-06 M) | Residual activity (CDK2/CycD1; 1.0E-05 M) | Residual activity (CDK2/CycD1; 1.0E-06 M) | Residual activity (CDC7/DBF4; 1.0E-05 M) | Residual activity (CDC7/DBF4; 1.0E-06 M) | Residual activity (ZAP70; 1.0E-05 M) | Residual activity (ZAP70; 1.0E-06 M) | Residual activity (CLK4; 1.0E-05 M) | Residual activity (CLK4; 1.0E-06 M) | Residual activity (NEK4; 1.0E-05 M) | Residual activity (NEK4; 1.0E-06 M) | Selectivity Score (< 50 % residual activity) ([1]; 1.0E-05 M) | Selectivity Score (< 50 % residual activity) ([1]; 1.0E-06 M) | suppression of constitutive activity of LBP-filled PXR mutant (PXR(S208W/S247W/C284W)) | expression of CYP3A4 mRNA (CYP3A4) | expression of CYP2B6 mRNA (CYP2B6) | effect on rifampicin-induced expression of ABCB1 (ABCB1; 10 µM compound + 10 µM rifampicin) | expression of ABCB1 mRNA (ABCB1; 10 µM) |
| --- | --- | --- | --- | --- | --- | --- | --- | --- | --- | --- | --- | --- | --- | --- | --- | --- | --- | --- | --- |
| O=C(Nc1ccc(F)c(Nc2ccc3c(c2)CCCCC3=O)c1)c1cccc(F)c1 [Compound 109] | 99 % of control | 105 % of control | 87 % of control | 106 % of control | 91 % of control | 96 % of control | 91 % of control | 114 % of control | 108 % of control | 105 % of control | 94 % of control | 98 % of control | 0.024 | 0.012 |  |  |  |  |  |
| Cc1ccc(NC(=O)Cc2ccccc2)cc1Nc1ccc2c(c1)CCCCC2=O [Compound 73] |  |  |  |  |  |  |  |  |  |  |  |  |  |  | 40% |  |  |  |  |
| O=C(Cc1ccccc1)Nc1ccc(F)c(Nc2ccc3c(c2)CCCCC3=O)c1 [Compound 100] | 100 % of control | 104 % of control | 119 % of control | 102 % of control | 93 % of control | 98 % of control | 103 % of control | 118 % of control | 98 % of control | 103 % of control | 81 % of control | 102 % of control | 0.015 | 0.003 | did not affect constitutive activity of the PXR mutant | induced the expression of ABCB1, CYP2B6, and CYP3A4 | induced the expression of ABCB1, CYP2B6, and CYP3A4 | only minor inhibitory effects | induced the expression of ABCB1, CYP2B6, and CYP3A4 |

— paper PMC9030254, “Target Hopping from Protein Kinases to PXR: Identification of Small-Molecule Protein Kinase Inhibitors as Selective Modulators of Pregnane X Receptor from TüKIC Library” (Cells, 2022)
